Measured values published in US20260265199A1, “CRYSTALLINE FORMS OF (R)-2-AMINO-5-(4-(2-(3,5-DIFLUOROPHENYL)-2-HYDROXYACETAMIDO)-2-METHYLPHENYL)-N-ISOPROPYLNICOTINAMIDE AND METHODS FOR USING THE SAME” (HIBERCELL, INC., priority 2023, published 2026).
Structures can show the parent of a compound that is named as a salt. Where two headings read alike, the source gives them in different places.

Experiment: Phase 1a study: pharmacokinetics after oral BID dosing in subjects with advanced solid tumors
Type: in vivo, human
Parameters: Increase in mean: scale not given here
Conditions: for Increase in mean: 600 mg vs preceding dose level (400 mg); for Cmax / half-life / AUC(0-t) / Vd/F / Tmax: human, in vivo, po; for Vd/F: read-out: Vz/F
Procedure: This example describes a first in human, Phase 1a, multi-center, open-label study to establish the maximum tolerated dose (MTD) and evaluate the safety and tolerability of oral dosing of Form A of the hemi-fumarate salt of the compound of formula (I) (Example 11) in a dose-escalating fashion. Form A of the hemi-fumarate salt was orally administered BID every day with food or within 30 minutes of completing a meal, starting at 25 mg, with doses escalating to 50, 100, 200, 400, 600, and 900 mg BID as safety allows for each 3-week treatment cycle.
Up to 36 qualified subjects at 3 to 5 US sites, who have specific tumor types of renal cell carcinoma (RCC), gastric cancer (GC), metastatic breast cancer (MBC), small cell lung cancer (SCLC), and other solid tumors (e.g., non-small cell lung cancer, colorectal cancer, carcinoma of unknown primary) with the exception of rapidly progressing neoplasms (e.g., pancreatic cancer, glioblastoma, hepatocellular carcinoma) received Form A of the hemi-fumarate salt. Every effort was made to ensure approximately 50% of all subjects enrolled were subjects with RCC and GC. The starting dose level was 25 mg twice daily (BID), escalating to 50, 100, and 200 mg BID as safety allows, following the Bayesian Optimal Interval (BOIN) design. The safety monitoring committee (SMC) evaluated the dose-limiting toxicities (DLTs) and cumulative safety and PK data at the end of each cohort. Based on the SMC recommendations after a comprehensive review of PK and safety data for 200 mg BID dose, higher dose levels were evaluated, starting with 400 mg BID. The dose escalated to 600 mg and then 900 mg following the BOIN design starting with 1 subject at each escalated dose, until the MTD was reached or the sponsor or SMC declares the dose most appropriate for clinical development. This Phase 1a will be expanded into a Phase 1b/2a study through a protocol amendment and will then assess the dose and tumor type(s) selected in Phase 1a as the most appropriate for further clinical development. Subjects were dosed until unacceptable toxicity, disease progression per immune-related Response Evaluation Criteria in Solid Tumors (iRECIST), subject withdrawal, any other administrative reasons, or after 2 years of treatment, whichever occurs first. Efficacy was assessed via Response Evaluation Criteria in Solid Tumors 1.1 (RECIST 1.1); computed tomography (CT) scans were conducted every 6 weeks. Safety, including occurrence of dose-limiting toxicities (DLTs), pharmacokinetics (PK), and biomarker parameters were also assessed.
Form A of the hemi-fumarate salt was orally administered BID with food or within 30 minutes of completing a meal, starting at 25 mg, with doses escalating to 50, 100, 200, 400, 600 and 900 mg BID as safety allowed. Up to 24 subjects were enrolled to ensure 12 subjects completed the study at the estimated MTD of Form A of the hemi-fumarate salt. Dosing occurred in 3-week cycles. Subjects spent Cycle 1/Day 1 (C1D1) in the clinic followed by an overnight stay for safety monitoring and PK sampling. Subjects were hospitalized for administration of first 3 doses: CID1 am and pm doses, and Cycle 1/Day 2 (C1D2) am dose; on Days 8, 15, and 21 the am dose was taken in the clinic after the planned PK samples. All other doses were self administered at home.
Results of Cohorts 1 to 6 the study are detailed in Tables 47-50 below.

[1] = 25 mg, 25 mg single oral dose, Cycle 1 Day 1, geometric mean, N = 3
[2] = 50 mg, 50 mg single oral dose, Cycle 1 Day 1, geometric mean, N = 3
[3] = 200 mg, 200 mg single oral dose, Cycle 1 Day 1, geometric mean, N = 5

Q: Which results are given for Cc1cc(NC(=O)[C@H](O)c2cc(F)cc(F)c2)ccc1-c1cnc(N)c(C(=O)NC(C)C)c1 [Form A of the hemi-fumarate salt, (R)-2-amino-5-(4-(2-(3,5-difluorophenyl)-2-hydroxyacetamido)-2-methylphenyl)-N-isopropylnicotinamide]?
A: Increase in mean (single oral dose, Cycle 1 Day 1): 3.03; Increase in mean (twice daily oral, Cycle 1 Day 21): 1.19; Cmax [1]: 120 ng/mL; half-life (25 mg, 25 mg single oral dose, Cycle 1 Day 1, geometric mean, N = 3, interpret with caution, terminal elimination phase not well captured, read-out: t1/2 (converted)): 8.99 h; AUC(0-t) (25 mg, 25 mg single oral dose, Cycle 1 Day 1, geometric mean, N = 3, read-out: AUC0-12): 850 ng·h/mL; AUC(0-t) (25 mg, 25 mg single oral dose, Cycle 1 Day 1, geometric mean, N = 3, read-out: AUC0-last): 850 ng·h/mL; Vd/F [1]: 147 L; Tmax (25 mg, 25 mg single oral dose, Cycle 1 Day 1, median, N = 3): 8 h; half-life (25 mg, 25 mg twice daily oral, Cycle 1 Day 21, N = 3, interpret with caution, terminal elimination phase not well captured, read-out: t1/2 (converted)): 16 h; Vd/F (25 mg, 25 mg twice daily oral, Cycle 1 Day 21, N = 3): 150 L; Cmax (25 mg, 25 mg twice daily oral, Cycle 1 Day 21, geometric mean, N = 3): 537 ng/mL; AUC(0-t) (25 mg, 25 mg twice daily oral, Cycle 1 Day 21, geometric mean, N = 3, read-out: AUC0-last): 4110 ng·h/mL; half-life (25 mg, 25 mg twice daily oral, Cycle 1 Day 21, geometric mean, N = 3, read-out: t1/2, eff (converted)): 35.8 h; Tmax (25 mg, 25 mg twice daily oral, Cycle 1 Day 21, median, N = 3): 2 h; Cmax [2]: 243 ng/mL; half-life (50 mg, 50 mg single oral dose, Cycle 1 Day 1, geometric mean, N = 3, interpret with caution, terminal elimination phase not well captured, read-out: t1/2 (converted)): 11.1 h; AUC(0-t) (50 mg, 50 mg single oral dose, Cycle 1 Day 1, geometric mean, N = 3, read-out: AUC0-12): 2090 ng·h/mL; AUC(0-t) (50 mg, 50 mg single oral dose, Cycle 1 Day 1, geometric mean, N = 3, read-out: AUC0-last): 2090 ng·h/mL; Vd/F [2]: 141 L; Tmax (50 mg, 50 mg single oral dose, Cycle 1 Day 1, median, N = 3): 4 h; Cmax (50 mg, 50 mg twice daily oral, Cycle 1 Day 21, geometric mean, N = 3): 978 ng/mL; AUC(0-t) (50 mg, 50 mg twice daily oral, Cycle 1 Day 21, geometric mean, N = 3, read-out: AUC0-last): 9070 ng·h/mL; half-life (50 mg, 50 mg twice daily oral, Cycle 1 Day 21, geometric mean, N = 3, read-out: t1/2, eff (converted)): 31.5 h; Tmax (50 mg, 50 mg twice daily oral, Cycle 1 Day 21, median, N = 3): 2 h; Cmax (100 mg, 100 mg single oral dose, Cycle 1 Day 1, geometric mean, N = 4): 380 ng/mL; AUC(0-t) (100 mg, 100 mg single oral dose, Cycle 1 Day 1, geometric mean, N = 4, read-out: AUC0-12): 2800 ng·h/mL; AUC(0-t) (100 mg, 100 mg single oral dose, Cycle 1 Day 1, geometric mean, N = 4, read-out: AUC0-last): 1930 ng·h/mL; Tmax (100 mg, 100 mg single oral dose, Cycle 1 Day 1, median, N = 4): 7 h; half-life (100 mg, 100 mg twice daily oral, Cycle 1 Day 21, N = 3, interpret with caution, terminal elimination phase not well captured, read-out: t1/2 (converted)): 37.6 h; Vd/F (100 mg, 100 mg twice daily oral, Cycle 1 Day 21, N = 3): 383 L; Cmax (100 mg, 100 mg twice daily oral, Cycle 1 Day 21, geometric mean, N = 3): 1310 ng/mL; AUC(0-t) (100 mg, 100 mg twice daily oral, Cycle 1 Day 21, geometric mean, N = 3, read-out: AUC0-last): 11700 ng·h/mL; half-life (100 mg, 100 mg twice daily oral, Cycle 1 Day 21, geometric mean, N = 3, read-out: t1/2, eff (converted)): 30.1 h; Tmax (100 mg, 100 mg twice daily oral, Cycle 1 Day 21, median, N = 3): 4 h; Cmax [3]: 839 ng/mL; half-life (200 mg, 200 mg single oral dose, Cycle 1 Day 1, geometric mean, N = 5, interpret with caution, terminal elimination phase not well captured, read-out: t1/2 (converted)): 20.6 h; AUC(0-t) (200 mg, 200 mg single oral dose, Cycle 1 Day 1, geometric mean, N = 5, read-out: AUC0-12): 5800 ng·h/mL; AUC(0-t) (200 mg, 200 mg single oral dose, Cycle 1 Day 1, geometric mean, N = 5, read-out: AUC0-last): 5800 ng·h/mL; Vd/F [3]: 331 L; Tmax (200 mg, 200 mg single oral dose, Cycle 1 Day 1, median, N = 5): 4 h; half-life (200 mg, 200 mg twice daily oral, Cycle 1 Day 21, N = 4, interpret with caution, terminal elimination phase not well captured, read-out: t1/2 (converted)): 7.71 h; Vd/F (200 mg, 200 mg twice daily oral, Cycle 1 Day 21, N = 4): 79.4 L; Cmax (200 mg, 200 mg twice daily oral, Cycle 1 Day 21, geometric mean, N = 4): 2990 ng/mL; AUC(0-t) (200 mg, 200 mg twice daily oral, Cycle 1 Day 21, geometric mean, N = 4, read-out: AUC0-last): 27200 ng·h/mL; half-life (200 mg, 200 mg twice daily oral, Cycle 1 Day 21, geometric mean, N = 4, read-out: t1/2, eff (converted)): 35.9 h
